“Also recorded” adds a separate entry of the source. Read-outs that look alike come from different tables or passages of the source.

Assay [1] concerns metathoracic ganglion of the locust. The assay is described as follows: Repetitive SD triggered by ouabain in locust. The settings on record: for number of repetitive SD-like events in animals that generated SD: ouabain exposure, FIG. 2D; for baseline [K+]o levels during ouabain exposure: pre-treatment, FIG. 2E. The assay is classed as in vivo, Locusta migratoria. From the text:
In a second set of experiments, repetitive SD triggered by the ionic disturbance caused by ouabain (a specific inhibitor of the sodium/potassium pump that restores ionic gradients across cell membranes) was examined.
Pretreatment with a bath application of KT5823 prevented repetitive SD in 70% of animals. […] FIG. 2B illustrates a representative example in a single preparation of the eradication of repetitive SD by prior bath application of KT5823. FIG. 2C illustrates that KT5823 reduced the percentage of preparations showing repetitive SD in response to ouabain, while FIG. 2D illustrates that control and KT5823-treated preparations have fewer repetitive SD events.

The subject of assay [2] is PKG. Nature of the assay: PKG enzyme activity assay on heads of treated flies. Format: biochemical, Drosophila melanogaster. The note with it: heads of sitter flies treated in vivo with volatilized agent, versus sham control. How it is done: PKG enzyme activity assays: PKG enzyme activity assays were conducted according to the procedure outlined in Kaun et al. (J Exp Biol. 210(Pt 20):3547-3558, 2007). Adult Drosophila were decapitated and the heads were homogenized in 25 mM 1-1 Tris (pH 7.4), 1 mM 1-1 EDTA, 2 mM 1-1 EGTA, 5 mM 1-1 β-mercaptoethanol, 0.05% Triton X-100 and protease inhibitor solution (Roche Diagnostics). Following microcentrifugation for 5 min, the supernatant was removed and those supernatants containing equal amounts of total protein were examined for PKG enzyme activity. The reaction mixture contained the following substances: 40 mM 1-1 Tris-HCl (pH 7.4), 20 mM 1-1 magnesium acetate, 0.2 mM 1-1 [γ^32P]ATP (500-1000 c.p.m. pmol−1), […] heptapeptide (RKRSRAE), (SEQ ID NO:6), (3 mM 1-1 cGMP and a highly specific inhibitor of cAMP-dependent protein kinase. The next step of the procedure involved incubating the reaction mixtures at a temperature of 30° C. for 10 min, followed by ending the reaction by spotting 70 μl of the reaction mixture onto Whatman P-81 filters. To remove any unreacted [γ^32P]ATP, these spots were then soaked with 75 mM 1-1 H3PO4 for 5 min and washed three times with 75 mM 1-1 H3PO4. Before quantifying enzyme activity, filters were rinsed with 100% ethanol and air dried. To calculate PKG enzyme activity, counts were taken in a Wallac 1409 Liquid Scintillation Counter using universal scintillation cocktail (ICN). PKG activity was presented in the figures as pmol of ^32P incorporated into the substrate min−1 mg−1 protein.

The test system of assay [3] is respiratory brain slices. Nature of the assay: Neural function in respiratory brain slices during sodium azide-induced anoxia. The settings on record: expected. More on the design: species or system mouse or rat. The source says: Neural function in mammals (mouse or rat) is examined pharmacologically during acute anoxia in respiratory brain slices via sodium azide, which chemically induces anoxia. Following administration of the sodium azide, the time until neural failure is monitored. This is done in the presence of a PDE5 inhibitor, 8-bromo-GMP, KT5823, and Cantharidin.

The subject of assay [4] is adult Drosophila melanogaster. The assay is classed as in vivo. The settings on record: sitter adults, volatilized from DMSO 1 hr, 1 mM KT5823, 1 mM Cantharidin, 200 mM DCA, 10 mM 8-Bromo cGMP, 10 mM T-0156, versus DMSO sham. How it is done:
FIG. 9 is a diagram illustrating in vivo treatment of adult Drosophila melanogaster with pharmacological agents. […] Adult sitters were exposed to various drugs known to target components of the PKG pathway (FIG. 8A). These drugs included: 10 mM T0156, a cGMP-specific phosphodiesterase-5 inhibitor, 10 mM 8-Bromo-cGMP, a PKG activator, 1 mM KT5823, a PKG inhibitor, 1 mM Cantharidin, a PP2A inhibitor, and 200 mM DCA, a K^+ channel activator. All drugs were solubilized in dimethyl sulfoxide (DMSO), where flies treated with only DMSO were used as sham controls. […] 10 μL of drug solution was applied to a crushed Kim wipe at the bottom of each 10 mL test vial. An additional Kim wipe was crushed over top of this to prevent direct contact between the fly and solution. 10 flies were then placed in the vial which was capped with a semi-permeable buzz-stopper, covered with a cut-out finger of a large latex glove to prevent chemical vapours from escaping, and incubated in the dark. The flies were subjected to the drug for 1 hr prior to each behavioural assay. In the drug combination experiments, 20 uL of DMSO was used as a control sham, and combinations of two pharmacological treatments were added as two separate 10 uL aliquots.
Whether or not fly PKG levels could be manipulated in vivo using a technique that uses volatilization of pharmacological agents was next examined. The role of these targets in vivo using sitter flies was examined by depositing pharmacological agents dissolved in DMSO on a cellulose tissue, and allowing them to volatize over minutes in an air tight vial at room temperature (FIG. 9). Adults were exposed to the volatilized compound for one hour in the dark and then assayed for locomotory resilience to acute hypoxia. Control sham animals (FIG. 7A) were treated with only DMSO. Compounds were chosen to target different components of the cGMP pathway (FIG. 8A) in tracheal smooth muscle and Chinese hamster ovary cells, where cGMP activates PKG, thereby activating PP2A, which then de-phosphorylates K^+ channels. The hypothesis that inhibition of this pathway would result in an increase in whole cell K^+ channel conductance, thereby leading to increased resilience to anoxic coma onset, was tested.
Locomotory Tolerance Assay during Acute Hypoxia: Ten flies (separated into males or females) from each of the three strains (rover [for^R], sitter [for^S] and for^s2) were selected and placed in three separate vials with food at least 24 hours before each experiment. At the time of the experiment, flies were emptied into 10 mL empty test vials covered with permeable sponge caps of equivalent thickness, allowing for consistent gas exchange. These test vials were then placed into a 600 mL beaker which was covered with parafilm, creating a closed chamber with an escape hole (1 cm diameter). The parafilm top was punctured with a needle connected to a gas tank (by a plastic hose), through which the inert gas argon was expelled. […] The needle tip was fastened to the bottom of the beaker and inserted into a larger sponge of similar texture to the vial sponge caps to ensure that gas expelled from the needle was dispersed equally throughout the beaker. Also, to ensure that all test vial positions in the beaker received equal gas flow, test vial positions were alternated every trial to reduce variability.
The experiment required exposing the test vials with 10 flies in the container to pure argon gas expelled from the tank at a flow rate of 600 cc/min+/−5%. Time of behavioural failure was recorded by observing the fly undergo a seizure, which was quickly followed by an anoxic coma.

Take `COC(=O)[C@@]1(OC)C[C@H]2O[C@]1(C)n1c3ccccc3c3c4c(c5c6ccccc6n2c5c31)C(=O)N(C)C4` [KT5823, (9S, 10R, 12R)-2,3,9,10,11,12-Hexahydro-10-methoxy-2-9-dimethyl-1-oxo-9,12-epoxy-1H-diindolo-[1,2,3-fg:3′,2′,1′-k1]pyrrolo[3,4-i][1,6]benzodiazocine-10-carboxylic acid methyl ester]: in assay [1], the “number of repetitive SD-like events in animals that generated SD” value is “significantly more SD-like events than KT5823-treated animals” and the “baseline [K+]o levels during ouabain exposure” value is “significantly reduces the baseline [K^+]o levels”. The “animals in which repetitive SD was prevented” value in assay [1] (pretreatment by bath application, then ouabain) is listed as 70%. Further, the “head PKG enzyme activity” value in assay [2] was “significantly reducing PKG activity; also recorded: demonstrated significant effects compared to that of the sham control”. In addition, the “time until neural failure” value in assay [3] is “neuroprotection and prolonged neural function when subject to anoxia”. Also, the “time to anoxic coma onset during acute hypoxia, single agents” value in assay [4] is “significant increase in tolerance to acute hypoxia; also recorded: demonstrated significant resilience to anoxic coma”.
For the compound `Nc1nc2c(nc(Br)n2[C@@H]2O[C@@H]3COP(=O)(O)O[C@H]3[C@H]2O)c(=O)[nH]1` [8-Br-cGMP], in assay [1] (concomitantly treated with 10^-4 M ouabain), the “animals in which repetitive SD was generated” value was 100%. Further, in assay [1], the “number of repetitive SD-like events in animals that generated SD” value was “significantly fewer SD-like events than 8-Br-cGMP-treated animals”. In assay [1], the “baseline [K+]o levels during ouabain exposure” value was “did not raise the baseline [K^+]o levels above controls”. The “head PKG enzyme activity” value is “demonstrated significant effects compared to that of the sham control” in assay [2] (listed as 8-Bromo cGMP) and “induced an increase in head PKG activity levels; also recorded: increasing head PKG activity levels significantly beyond rover levels” in assay [2] (listed as 8-bromo cGMP). In assay [3], the “time until neural failure” value was “increased sensitivity to anoxia causing early failure of neural function”. For the same compound, the “time to anoxic coma onset during acute hypoxia, single agents” value in assay [4] (listed as 8-Bromo cGMP) is given as “exhibited significant sensitivity to anoxic coma”; in assay [4] (listed as 8-bromo cGMP) it was “enhanced sensitivity to acute hypoxia; also recorded: expedited locomotory failure during acute hypoxia of sitters to rover levels”.

Values taken from US8026217B2, “Compositions and methods for treating neural anoxia and spreading depression” (Florida Atlantic University, priority 2007, dated 2011).
